# Results as given in patent US5254582A, “Antitumor compositions and methods” (Eli Lilly and Company, priority 1992, dated 1993).
# Key:
# [1] = test system: VRC5 human colon adenocarcinoma xenograft; experiment: percent inhibition of tumor growth and mortality in mice bearing VRC5 human colon adenocarcinoma xenografts, oral; type: in vivo; settings: daily for 10 days
# Source text: (§1) Two of the tumor models used for showing the antineoplastic activity of the sulfonylurea of this invention were the human colon xenografts, HXGC3 and VRC5. J. A. Houghton and D. M. Taylor, British Journal of Cancer, 37:213-223 (1978). These tumors were obtained from St. Jude's Children's Research Hospital and have been widely used as human tumor models.
# (§2) First passage tumors were stored in liquid nitrogen, using standard techniques. The transplanted tumor was reestablished from the Tumor Bank every six months or as needed. The tumor was maintained by serial passage twice weekly in nude mice.
# (§3) In the procedures utilized here, the tumor was removed from passage animals and minced into 1- to 3-mm cubic fragments using sterile techniques. Tumor pieces were checked for sterility using both Antibiotic medium 1 and Brain Heart Infusion (Difco, Detroit, Mi.). The tumor pieces were implanted into the recipient CDl Nu/Nu mice subcutaneously in an axillary site by trochar.
# (§4) Drug therapy on the appropriate schedule was initiated seven days after tumor implantation. The compound being tested was mixed with 2.5% Emulphor EL620 from GAF Corporation (1:40 dilution in 0.9% saline). The total dosage volume for each administration was 0.5 mL. All animals were weighed at the beginning and end of administration of the subject compounds. Food and water were provided ad libitum.
# (§5) Each control group and each dosage level of the treated groups consisted of 10 mice selected at random from the pool of implanted animals. The formulations were administered orally by gavage with the use of an 18-gauge needle. Compounds were dosed daily for 10 days.
# (§6) The tumor was measured five days after treatment ended with two dimensional measurements (width and length) of the tumor taken using digital electronic calipers interfaced to a microcomputer. J. F. Worzalla, et al., Investigational New Drugs, 8:241-251 (1990). Tumor weights were calculated from these measurements using the following formula:
# (§7) Tumor weight (mg)=[tumor length (mm)×[tumor width (mm)]^2 ]
# (§8) At least one control group of an equal number of mice was treated with the same volume of 2.5% Emulphor only. The percent inhibition is determined by subtracting the ratio of the mean tumor size of the test group relative to the control group from one and multiplying the result by 100.
# (§9) The results of several experiments in mice bearing the HXGC3 and VRC5 human colon adenocarcinomas when the instant compounds were administered orally are provided in Table I. In the Table, column 1 describes the particular human tumor xenograft being studied; column 2 gives the dosage level of the compound of Formula I in milligrams per kilogram of body weight; column 3 describes the percent inhibition of tumor growth; and column 4 tallies the number of mice which died during the course of the experiment relative to the total number of animals in the group.
# [2] = toxicological study in male Fischer 344 rats, morphological, hematological and pathological studies; type: in vivo, rat (male Fischer 344); settings: rat, 65 to 1000 mg/kg, oral gavage, daily for 14 days
# Protocol: For these experiments thirty male Fischer 344 rats were administered varying dosages of a formulation containing the compound of Formula I. These formulations contained between 65 and 1000 mg of the active ingredient per kilogram of body weight of the rat, in combination with a suitable excipient, usually containing 10% acacia. The compounds were administered orally by gavage. The compounds were dosed daily for 14 days. All animals were weighed at the beginning and end of administration of the subject compounds. Food and water were provided ad libitum.
# Upon completion of the testing regimen, morphological and hematological studies were performed.
# [3] = test system: transplanted human tumors; experiment: activity against transplanted human tumors in mice bearing different xenograft tumors; type: in vivo
# Source text: as §1
# [4] = test system: HXGC3 human colon adenocarcinoma xenograft; experiment: percent inhibition of tumor growth and mortality in mice bearing HXGC3 human colon adenocarcinoma xenografts, oral; type: in vivo; settings: daily for 10 days
# Source text: as §1, §2, §3, §4, §5, §6, §7, §8, §9
# [5] = in vivo; cited from earlier work
# [6] = phase I clinical studies; cited from earlier work
# [7] = cited from earlier work
compound,measurement,setting,value
"O=C(Nc1ccc(Cl)c(Cl)c1)NS(=O)(=O)c1ccc2c(c1)CCO2 [compound of Formula I, N-[[(3,4-dichlorophenyl)amino]carbonyl]-2,3-dihydrobenzofuran-5-sulfonamide]",Percent Inhibition of tumor growth,[1]; 150 mg/kg,97%
same,Toxic/Total (mice which died relative to total number in group),[1]; 150 mg/kg,0/10
same,Percent Inhibition of tumor growth,[1]; 300 mg/kg,98%
same,Toxic/Total (mice which died relative to total number in group),[1]; 300 mg/kg,0/10
same,Percent Inhibition of tumor growth,[1]; 600 mg/kg,100%
same,Toxic/Total (mice which died relative to total number in group),[1]; 600 mg/kg,0/10
same,Percent Inhibition of tumor growth,[1]; 1200 mg/kg,100%
same,Toxic/Total (mice which died relative to total number in group),[1]; 1200 mg/kg,0/10
same,hemolytic anemia,[2],absence of hemolytic anemia
same,pathological tissue effects,[2],"effectiveness against tissues with a high mitotic index, including lymph nodes, thymus, gut, testis, and bone marrow"
same,unexpected tissue changes,[2],Unexpected tissue changes were not observed
same,therapeutic index,[3]; in vivo,high therapeutic index
same,activity against transplanted human tumors in vivo,[3]; mice bearing different xenograft tumors,active against transplanted human tumors in vivo
same,Percent Inhibition of tumor growth,[4]; 150 mg/kg,81%
same,Toxic/Total (mice which died relative to total number in group),[4]; 150 mg/kg,0/10
same,Percent Inhibition of tumor growth,[4]; 300 mg/kg,98%
same,Toxic/Total (mice which died relative to total number in group),[4]; 300 mg/kg,0/10
same,Percent Inhibition of tumor growth,[4]; 600 mg/kg,98%
same,Toxic/Total (mice which died relative to total number in group),[4]; 600 mg/kg,0/10
same,Percent Inhibition of tumor growth,[4]; 1200 mg/kg,99%
same,Toxic/Total (mice which died relative to total number in group),[4]; 1200 mg/kg,0/10
"O=C(Nc1ccc(Cl)cc1)NS(=O)(=O)c1ccc2c(c1)CCC2 [sulofenur, N-(indan-5-sulfonyl)-N'-(4-chlorophenyl)urea]",dose-limiting toxicity,[5],hemolytic anemia
same,major metabolites in patients,[6],1-hydroxy- and 1-ketoindansulfonylureas
same,main urinary metabolites,"[7]; animal trials, urine",mono-hydroxy- and mono-ketoindanyl metabolites
same,adsorption and metabolism,"[7]; mice, rats, dogs, and monkeys",good adsorption and extensive metabolism
